assay: photocatalytic hydrogen evolution rate (per 5 mg catalyst); higher = more photocatalytic H2 evolution; extreme values may be limits of the assay; conditions: catalyst mass (mg): 5; Pt cocatalyst (wt%): 3; sacrificial medium: triethylamine/methanol/water 1:1:1
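Further: aromatic molecules in triethylamine/methanol/water with Pt photoreduced in situ, irradiated 3 h under a 1 sun AM 1.5G solar simulator (350–1000 nm), H2 quantified by headspace gas chromatography; listed molecule itself used as the photocatalyst at 5 mg per vial.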

| photocatalytic hydrogen evolution rate [µmol/h] | SMILES |
| --- | --- |
| 0 | O=Cc1cccc(O)c1O |
| 0.122 | Clc1ccc2ccc(Cl)nc2n1 |
| 0 | COc1ccc(I)cc1 |
| 0.000715 | N#Cc1cc(N)cc(Cl)c1 |
| 0 | Fc1c(Br)cccc1Br |
| 0.721 | N#Cc1cnc(Br)cn1 |
| 0 | Brc1ccc(C#CC#Cc2ccc(Br)cc2)cc1 |
| 1.66 | O=Cc1ccc(C#Cc2ccccc2)cc1 |
| 0 | OC(c1ccccc1)(c1ccccc1)c1ccccc1 |
| 0 | N#Cc1ccncc1Br |
| 0 | N#Cc1cc(Br)ccc1Br |
| 2.49 | Cn1c2ccccc2c2cc(C=O)ccc21 |
| 0.0666 | Nc1nc(Br)cnc1Br |
| 0 | O=C(n1ccnc1)n1ccnc1 |
| 0 | Fc1cc(Br)ccc1Br |
| 8.89 | O=Cc1ccc(-c2ccc(C=O)cc2)cc1 |
| 0 | c1ccc2[nH]ccc2c1 |
| 0.0761 | CC1(C)OB(c2ccc(N)cc2)OC1(C)C |
| 0.387 | CC(=O)c1ccc(CCc2ccc(C(C)=O)cc2)cc1 |
| 0.0133 | Cc1cc(C#N)ccc1N |
| 0 | Nc1ccc(-c2ccc(N)c(F)c2)cc1F |
| 0 | Oc1c(Br)cc(Br)c(O)c1Br |
| 0 | O=C1c2ccccc2C(=O)C1(O)O |

| photocatalytic hydrogen evolution rate [µmol/h] | SMILES |
| --- | --- |
| 0 | OB(O)c1cc(F)c(B(O)O)cc1F |
| 0 | O=c1oc(=O)c2cc3c(=O)oc(=O)c3cc12 |
| 0 | O=C1Cc2cc(Br)cc(Br)c2N1 |
| 0 | O=Cc1cc(O)c(C=O)cc1O |
| 0 | NC(c1ccccc1)(c1ccccc1)c1ccccc1 |
| 0 | CC(=O)c1ccc([N+](=O)[O-])cc1 |
| 0 | C#Cc1ccc(C#N)cc1 |
| 0 | O=C1C(=O)c2cccnc2-c2ncccc21 |
| 20.2 | O=C1OC2(c3ccc(O)cc3Oc3cc(O)ccc32)c2ccccc21 |
| 0.0345 | Cc1cncc(C)n1 |
| 0 | Nc1ccc(-c2ccc(N)c([N+](=O)[O-])c2)cc1[N+](=O)[O-] |
| 0 | CC1(C)OB(c2cn[nH]c2)OC1(C)C |
| 0.383 | Brc1cc(Br)c2ccc3c(Br)cc(Br)c4ccc1c2c43 |
| 0.241 | Fc1cc(Br)c2nsnc2c1Br |
| 12.3 | COc1cc(Br)ccc1C=O |
| 0 | C#Cc1cc(C#C)cc(C#C)c1 |
| 0.055 | Cc1cc(N)ccc1-c1ccc(N)cc1C |
| 0 | Brc1cccc(-c2cccc(Br)n2)n1 |
| 0 | O=c1[nH]cc[nH]1 |
| 0 | Oc1cc(Br)c(O)cc1Br |
| 0.34 | CN(C)c1ccc(C=O)cc1 |
| 0 | Nc1cccc2c(N)cccc12 |
| 0 | Cc1c(C2(c3cc(Br)c(O)c(Br)c3C)OS(=O)(=O)c3ccccc32)cc(Br)c(O)c1Br |

| photocatalytic hydrogen evolution rate [µmol/h] | SMILES |
| --- | --- |
| 1.44 | N#Cc1c(Cl)c(Cl)c(C#N)c(Cl)c1Cl |
| 14.6 | O=c1c2ccccc2sc2ccccc12 |
| 0 | N#Cc1ccccc1-c1ccccc1C#N |
| 0 | O=C1C(Br)=C(Br)C(=O)C(Br)=C1Br |
| 0 | O=C1C=CC(=O)N1c1ccccc1 |
| 0.136 | c1ccc2c(c1)Cc1cc3c(cc1-2)Cc1ccccc1-3 |
| 0 | N#Cc1cccc(N)c1 |
| 0 | Oc1c(Br)c(O)c(Br)c(O)c1Br |
| 2.97 | O=Cc1c2ccccc2c(C=O)c2ccccc12 |
| 0 | c1ccc2c(c1)Nc1ccccc1O2 |
| 0 | Brc1ccnc(-c2cc(Br)ccn2)c1 |
| 0 | c1ccc(-c2ccc(-c3ccc(-c4ccc(-c5ccccc5)cc4)cc3)cc2)cc1 |
| 10.9 | O=Cc1cc(C=O)c(O)c(C=O)c1 |
| 0.0198 | COC(=O)c1cc(C(=O)OC)cc(C(=O)OC)c1 |
| 0 | Nc1ccc(-c2cc(-c3ccc(N)cc3)cc(-c3ccc(N)cc3)c2)cc1 |
| 0 | Brc1ccc(-c2cc(-c3ccc(Br)cc3)cc(-c3ccc(Br)cc3)c2)cc1 |
| 0.655 | Brc1cnc2c(ccc3cc(Br)cnc32)c1 |
| 0 | O=C(O)c1ccccc1[N+](=O)[O-] |
| 0.624 | O=Cc1ccc(Br)cc1 |
| 0 | COC(=O)c1ccnc(-c2cc(C(=O)OC)ccn2)c1 |
| 0 | N#Cc1ccc(-c2ccc(N)cc2)cc1 |
| 2.34 | O=Cc1ccc(C(=O)O)cc1 |
| 0 | Brc1cc2cc3sc(Br)cc3cc2s1 |

| photocatalytic hydrogen evolution rate [µmol/h] | SMILES |
| --- | --- |
| 0.0679 | Brc1ccc(C(c2ccc(Br)cc2)(c2ccc(Br)cc2)c2ccc(Br)cc2)cc1 |
| 0 | O=Cc1ccc2nsnc2c1 |
| 0.057 | c1ccc2c(c1)ccc1ccccc12 |
| 0.441 | O=C(O)c1ccc(-c2cc(-c3ccccn3)nc(-c3ccccn3)c2)cc1 |
| 0 | N#Cc1nccnc1C#N |
| 0 | C#Cc1ccc(N)cc1 |
| 0 | Nc1ccc(-c2ccc(-c3ccc(N)cc3)cc2)cc1 |
| 0.317 | O=Cc1ccc(N(c2ccccc2)c2ccccc2)cc1 |
| 0 | Brc1ccc2c(c1)sc1cc(Br)ccc12 |
| 5.78 | COc1cc(C=O)cc(OC)c1 |
| 0.174 | Brc1ccc(-c2ccc(-c3ccc(Br)s3)c3nsnc23)s1 |
| 0 | Brc1ccc2c3ccc(Br)cc3c3ccccc3c2c1 |
| 1.17 | O=Cc1ccc(N(c2ccccc2)c2ccc(C=O)cc2)cc1 |
| 0 | N#CCC(=O)c1ccc2c(c1)CCCC2 |
| 0.0847 | CC1(C)OB(c2cc3ccc4cc(B5OC(C)(C)C(C)(C)O5)cc5ccc(c2)c3c45)OC1(C)C |
| 0 | Cc1ccc(-c2ccc(C)cc2)cc1 |
| 0.0799 | CC1(C)c2cc(Br)ccc2-c2ccc(Br)cc21 |
| 1.84 | O=C(O)c1ccc(-c2ccc(-c3ccc(C(=O)O)cc3)cc2)cc1 |
| 0 | N#Cc1ccc(Br)c(F)c1 |
| 0.0457 | c1ccc(-c2cc(-c3ccccc3)cc(-c3ccccc3)c2)cc1 |
| 0.0654 | N#Cc1ccc(C#N)c2ccccc12 |
| 6.77 | O=C(c1ccc(Br)cc1)c1ccc(Br)cc1 |
| 0.0397 | Cn1cnc(C#N)c1C#N |

| photocatalytic hydrogen evolution rate [µmol/h] | SMILES |
| --- | --- |
| 9.21 | Cn1c2ccc(Br)cc2c(=O)c2cc(Br)ccc21 |
| 0.155 | Oc1cc2c3cc(O)c(O)cc3c3cc(O)c(O)cc3c2cc1O |
| 0.0826 | N#Cc1ccc(-c2ccc(N)nc2)cc1 |
| 5.52 | CC(=O)c1ccc(C(C)=O)cc1 |
| 0.0266 | COC(=O)c1cccc(C(=O)OC)n1 |
| 0 | CCc1cc(C)cc(CC)c1Nc1ccc(Nc2c(CC)cc(C)cc2CC)c2c1C(=O)c1ccccc1C2=O |
| 0 | CN1C(=O)c2ccc3c4ccc5c6c(ccc(c7ccc(c2c37)C1=O)c64)C(=O)N(C)C5=O |
| 0 | O=Cc1cccc(C=O)n1 |
| 0.0704 | O=C(O)c1ccc(-c2ccc(C(=O)O)cc2)cc1 |
| 0 | c1ccc2nc3ccccc3nc2c1 |
| 0 | c1ncncn1 |
| 0 | N#Cc1cccc(F)c1F |
| 0 | Nc1ccc(N)c2c1C(=O)c1c(N)ccc(N)c1C2=O |
| 1.18 | COC(OC)(C(=O)c1ccccc1)c1ccccc1 |
| 0 | CC1(C)OB(c2ccc(B3OC(C)(C)C(C)(C)O3)c3nsnc23)OC1(C)C |
| 0.468 | N#Cc1cnc(N)c(C#N)c1 |
| 0 | CC1(C)OB(c2ccc(B3OC(C)(C)C(C)(C)O3)cc2)OC1(C)C |
| 0 | Brc1cccc2cc3cccc(Br)c3cc12 |
| 0.297 | O=Cc1ccc(Br)nc1 |
| 0.129 | O=Cc1ccc(C=O)s1 |
| 0.023 | COC(=O)c1cccc(C(=O)OC)c1 |
| 1.37 | Brc1ccc(Br)c2nccnc12 |

| SMILES | photocatalytic hydrogen evolution rate [µmol/h] |
| --- | --- |
| COc1c(Br)cc(Br)cc1Br | 0 |
| Nc1ccc(Br)cc1 | 0 |
| N#Cc1cccc(C#N)c1 | 0 |
| N#Cc1cccc(C=O)c1 | 0.204 |
| Nc1ccccc1C(=O)O | 0.00138 |
| c1csc(-c2ccc(-c3cccs3)s2)c1 | 0 |
| Nc1ccncc1 | 0 |
| Nc1ccc(-c2ccc(N)c(O)c2)cc1O | 0.104 |
| c1ccc(-c2ccccc2-c2ccccc2)cc1 | 0 |
| Cc1c2ccccc2c(C)c2ccccc12 | 0.68 |
| Oc1c(Br)cc(Br)cc1Br | 0.0139 |
| O=Cc1ccc2ccc3cccc4ccc1c2c34 | 10.3 |
| O=C1C=CC(=O)c2c(O)cccc21 | 0 |
| O=C1c2ccccc2C(=O)c2ccccc21 | 0 |

Source: the supplement of paper PMC8372320
